Results from ChEMBL document CHEMBL5725801, “Fused heterocyclic compounds as CaM kinase inhibitors” (2018).

test: CaMKII Cell-Based Activity: CaMKII activity in neonatal rat ventricular myocytes (NRVM) was measured by monitoring the phosphorylation level of phospholamban using high-content imaging. NRVMs were plated in a clear bottom 384-well plate in medium supplemented with 10% fetal bovine serum (FBS) and incubated at 37° C., 5% CO2 overnight. The medium was changed to a serum-free medium and compounds were dosed to the cells. The cells were incubated at 37° C., 5% CO2 for 4 hours and were then treated with 100 nM ATX-II (Alomone Labs) to activate CaMKII. 10 minutes after the addition of ATX-II, the cells were fixed with 4% formaldehyde followed by permeabilization with 0.1% triton X100. The fixed cells were stained with an anti-phospho-phospholamban primary antibody (Santa Cruz Biotechnology) and an Alexa488-labeled anti-rabbit IgG secondary antibody (Life Technologies Corporation) as well as Hoechst 33342 (Life Technologies Corporation). The cells were imaged using an ArrayScan VTI (Cellomics) and analyzed for cells containing a positive fluorescent signal at 485 nm, reported as % responder. The % responders were plotted against the compound concentration to determine the compounds EC50.

Row | EC50 | Compound
1 | 32.5 nM | CCN(CC)[C@@H](C)CNC(=O)c1cc(-c2cnn3ccc(-c4cccs4)nc23)nc(N2CC[C@H]2C(=O)N2CC(OC)C2)c1
2 | 41.6 nM | CCN(CC)[C@@H](C)CNC(=O)c1cc(-c2cnn3ccc(-c4cccs4)nc23)nc(N2CC[C@H]2C(=O)NCC(F)(F)F)c1
3 | 143 nM | CCOC(=O)Nc1cc(C(=O)NC[C@H](C)N(CC)CC)cc(-c2cnn3ccc(-c4cccs4)nc23)n1
4 | 38.4 nM | CCN(CC)[C@@H](C)CNC(=O)c1cc(OCC(C)(C)O)nc(-c2cnn3ccc(-c4cccs4)nc23)c1
5 | 303 nM | N[C@@H]1CCC[C@@H]1NC(=O)c1ccnc(-c2cnn3ccc(-c4ccccc4)nc23)c1
6 | 10.5 nM | CCN(CC)[C@@H](C)CNC(=O)c1cc(N)nc(-c2cnn3ccc(-c4cccs4)nc23)c1
7 | 13.9 nM | CCN(CC)[C@@H](C)CNC(=O)c1cc(-c2cnn3ccc(-c4ccns4)nc23)nc(N2CC(OC)C2)c1
8 | 288 nM | COc1cc(C(=O)N2CCCC[C@H]2CN)cc(-c2cnn3ccc(-c4ccccc4)nc23)n1
9 | 355 nM | CCN(CC)[C@@H](C)CNC(=O)c1cc(N[C@H](C)C(N)=O)nc(-c2cnn3ccc(-c4cccs4)nc23)c1
10 | 47.1 nM | CCN(CC)[C@@H](C)CNC(=O)c1cc(-c2cnn3ccc(-c4cccs4)nc23)nc(N2CC[C@H]2C(=O)NCCOC)c1
11 | 54.5 nM | CCN(CC)[C@@H](C)CNC(=O)c1cc(-c2cnn3ccc(-c4cccs4)nc23)nc(N2CCC23COC3)c1
12 | 15.3 nM | CCN[C@@H](C)CNC(=O)c1cc(-c2cnn3ccc(-c4ccccc4)nc23)nc(C2CC2)c1
13 | 62.2 nM | C[C@H](N)CNC(=O)c1ccnc(-c2cnn3ccc(-c4cccs4)nc23)c1
14 | 22.6 nM | CCN(CC)[C@@H](C)CNC(=O)c1cc(-c2cnn3ccc(-c4cccs4)nc23)nc(N2CC(NC(=O)N(C)C)C2)c1
15 | 28.6 nM | CCN(CC)[C@@H](C)CNC(=O)c1cc(-c2cnn3ccc(-c4cccs4)nc23)nc(N2CC[C@H]2C(=O)N(C)OC)c1
16 | 8.24 nM | CCN(CC)[C@@H](C)CNC(=O)c1cc(-c2cnn(C)c2)nc(-c2cnn3ccc(-c4cccs4)nc23)c1
17 | 142 nM | C[C@@]1(CNC(=O)c2ccnc(-c3cnn4ccc(-c5cccs5)nc34)c2)CCCN1
18 | 166 nM | CC1(C)CNC1CNC(=O)c1ccnc(-c2cnn3ccc(-c4ccccc4)nc23)c1 (stereo not given)

Row | EC50 | Compound
19 | 232 nM | CCN(CC)[C@@H](C)CNC(=O)c1cc(NCCS(N)(=O)=O)nc(-c2cnn3ccc(-c4cccs4)nc23)c1
20 | 13.8 nM | CCN[C@@H](C)CNC(=O)c1cc(Cl)nc(-c2cnn3ccc(-c4ccccc4)nc23)c1
21 | 110 nM | CCN(CC)[C@@H](C)CNC(=O)c1cc(-c2cnn3ccc(-c4cccs4)nc23)nc(N2CCC(OC)CC2)c1
22 | 8.2 nM | O=C(c1ccnc(-c2cnn3ccc(-c4ccccc4)nc23)c1)N1CCCC12CCCNC2 (stereo not given)
23 | 93.8 nM | CCN(CC)[C@@H](C)CNC(=O)c1cc(-c2cnn3ccc(-c4cccs4)nc23)nc(N2CC(C)(C)C2)c1
24 | 31.3 nM | CCN(CC)[C@@H](C)CNC(=O)c1cc(-c2cnn3ccc(-c4cccs4)nc23)nc(N2CC(S(C)(=O)=O)C2)c1
25 | 53.7 nM | CCN(CC)CCNC(=O)c1cc(-c2cnn3ccc(-c4cccs4)nc23)nc(N2CC(C)(O)C2)c1
26 | 59.7 nM | CCc1cc(C(=O)NC[C@H](C)N(CC)CC)cc(-c2cnn3ccc(-c4cccs4)nc23)n1
27 | 80.1 nM | CCN(CC)[C@@H](C)CNC(=O)c1cc(-c2cnn3ccc(-c4cccs4)nc23)nc(N2CC[C@@H]2COC)c1
28 | 71.4 nM | CCN(CC)[C@@H](C)CNC(=O)c1cc(-c2cnn3ccc(-c4cccs4)nc23)nc(N2CC(C(N)=O)C2)c1
29 | 170 nM | CCN[C@@H](C)CNC(=O)c1cc(CC)nc(-c2cnn3ccc(-c4ccccc4)nc23)c1
30 | 65.3 nM | CCN(CC)[C@@H](C)CNC(=O)c1cc(-c2cnn3ccc(-c4cccs4)nc23)nc(N2CC[C@H]2C(=O)NCC#N)c1
31 | 89.3 nM | CCN(CC)[C@@H](C)CNC(=O)c1cc(-c2cnn3ccc(-c4cccs4)nc23)nc(N2CC[C@H]2C(=O)O)c1
32 | 65.2 nM | NC[C@H]1CCCCN1C(=O)c1cc(-c2cnn3ccc(-c4ccccc4)nc23)nc(C(F)(F)F)c1
33 | 301 nM | C[C@@H](CNC(=O)c1ccnc(-c2cnn3ccc(-c4cccs4)nc23)c1)NCCO
34 | 118 nM | CCN(CC)[C@@H](C)CNC(=O)c1cc(-c2cnn3ccc(-c4cccs4)nc23)nc(N2CC[C@H]2C(=O)N2CCS(=O)(=O)CC2)c1
35 | 127 nM | CCN(CC)[C@@H](C)CNC(=O)c1cc(-c2cnn3ccc(-c4cccs4)nc23)nc(N2CC[C@H]2C(=O)Nc2nccs2)c1

Second part, the compound before the results:

Row | Compound | EC50
36 | CC(CN)NC(=O)c1ccnc(-c2cnn3ccc(-c4ccccc4)nc23)c1 (stereo not given) | 175 nM
37 | CCN(CC)[C@@H](C)CNC(=O)c1cc(-c2cnn3ccc(-c4cccs4)nc23)nc(N2CC[C@H]2C(=O)NOC)c1 | 84.2 nM
38 | CCN(CC)[C@@H](C)CNC(=O)c1cc(Nc2ncc[nH]2)nc(-c2cnn3ccc(-c4cccs4)nc23)c1 | 247 nM
39 | CCN(CC)[C@@H](C)CNC(=O)c1cc(-c2cnn3ccc(-c4cccs4)nc23)nc(N2CC(NC(C)=O)C2)c1 | 28.4 nM
40 | CN(C)c1cc(C(=O)N2CCCC[C@@H]2CN)cc(-c2cnn3ccc(-c4ccccc4)nc23)n1 | 53.2 nM
41 | CCN(CC)[C@@H](C)CNC(=O)c1cc(-c2cnn3ccc(-c4cccs4)nc23)nc(N2CCC2)c1 | 40.2 nM
42 | CN1CCC[C@H]1CNC(=O)c1ccnc(-c2cnn3ccc(-c4cccs4)nc23)c1 | 173 nM
43 | CC(C)(O)CNc1cc(C(=O)N2CC3CCC(C2)NC3)cc(-c2cnn3ccc(-c4cccs4)nc23)n1 (stereo not given) | 406 nM
44 | CCN(CC)[C@@H](C)CNC(=O)c1cc(-c2cnn3ccc(-c4cccs4)nc23)nc(N(C)S(C)(=O)=O)c1 | 9.6 nM
45 | CCN(CC)[C@@H](C)CNC(=O)c1cc(-c2cnn3ccc(-c4ccccc4)nc23)nc(N2CC(OC)C2)c1 | 16.9 nM
46 | CCN(CC)[C@@H](C)CNC(=O)c1cc(NCCN(C)C)nc(-c2cnn3ccc(-c4ccccc4)nc23)c1 | 31.9 nM
47 | CCOC1CN(c2cc(C(=O)NC[C@H](C)N(CC)CC)cc(-c3cnn4ccc(-c5cccs5)nc34)n2)C1 | 9.45 nM
48 | CCN(CC)[C@@H](C)CNC(=O)c1cc(-c2cnn3ccc(-c4cccs4)nc23)nc(N2CCC[C@H]2C(=O)NC)c1 | 114 nM
49 | CN(C)CCNC(=O)c1ccnc(-c2cnn3ccc(-c4ccccc4)nc23)c1 | 320 nM
50 | CCN(CC)[C@H](CNC(=O)c1ccnc(-c2cnn3ccc(-c4ccccc4)nc23)c1)COc1ncccn1 | 47.3 nM
51 | O=C(NCC1CCCCCN1)c1ccnc(-c2cnn3ccc(-c4cccs4)nc23)c1 (stereo not given) | 347 nM
52 | CCN(CC)[C@@H](C)CNC(=O)c1cc(-c2cnn3ccc(-c4cccs4)nc23)nc(N2CC[C@H](N)C2)c1 | 68.7 nM
53 | CCN(CC)[C@@H](C)CNC(=O)c1cc(-c2cnn3ccc(-c4ccns4)nc23)nc(N2CC[C@H]2C(=O)NC)c1 | 32.7 nM
54 | CCN(CC)[C@@H](C)CNC(=O)c1cc(NCCN2CCOCC2)nc(-c2cnn3ccc(-c4cccs4)nc23)c1 | 27.5 nM
55 | N[C@@H]1CCC[C@H]1NC(=O)c1ccnc(-c2cnn3ccc(-c4ccccc4)nc23)c1 | 259 nM
56 | CCN(CC)CCNC(=O)c1cc(-c2cnn3ccc(-c4cccs4)nc23)nc(N2CC[C@H]2C(=O)NC)c1 | 34.7 nM
57 | Cc1cc(C(=O)N2CCCC[C@@H]2CN)cc(-c2cnn3ccc(-c4ccccc4)nc23)n1 | 52.8 nM
58 | CCC(CNC(=O)c1ccnc(-c2cnn3ccc(-c4cccs4)nc23)c1)NC(C)C (stereo not given) | 60 nM

Row | Compound | EC50
59 | CCN(CC)[C@@H](C)CNC(=O)c1cc(NS(=O)(=O)C2CC2)nc(-c2cnn3ccc(-c4cccs4)nc23)c1 | 95.9 nM
60 | NC[C@H]1CCCCN1C(=O)c1cc(Cl)nc(-c2cnn3ccc(-c4cccs4)nc23)c1 | 23.7 nM
61 | CCN(CC)[C@@H](C)CNC(=O)c1cc(-c2cnn3ccc(-c4cccs4)nc23)nc(N2CC(N(C)C)C2)c1 | 168 nM
62 | CCN[C@@H](C)CNC(=O)c1cc(-c2cnn3ccc(-c4cccs4)nc23)nc(N2CC(OC)C2)c1 | 90.5 nM
63 | CCN(CC)[C@@H](C)CNC(=O)c1cc(-c2cnn3ccc(-c4cccs4)nc23)nc(N2CC[C@H]2C(=O)N(C)O)c1 | 25.6 nM
64 | CCN(CC)[C@@H](C)CNC(=O)c1cc(-c2cnn3ccc(-c4cccs4)nc23)nc(N2CCC(F)(F)C2)c1 | 28.1 nM
65 | CCN(CC)[C@@H](C)CNC(=O)c1cc(NC2CC2)nc(-c2cnn3ccc(-c4cccs4)nc23)c1 | 30.6 nM
66 | CCN(CC)[C@@H](C)CNC(=O)c1cc(O[C@H]2CCOC2)nc(-c2cnn3ccc(-c4cccs4)nc23)c1 | 57.1 nM
67 | CCN(CC)CCNC(=O)c1ccnc(-c2cnn3ccc(-c4cccs4)nc23)c1 | 17.1 nM
68 | CCN(CC)[C@@H](C)CNC(=O)c1cc(-c2cnn3ccc(-c4cccs4)nc23)nc(N2CC[C@H]2COC)c1 | 78.4 nM
69 | C[C@@H](CNC(=O)c1ccnc(-c2cnn3ccc(-c4cccs4)nc23)c1)NCC(F)(F)F | 717 nM
70 | N[C@H]1CCN(C(=O)c2ccnc(-c3cnn4ccc(-c5ccccc5)nc34)c2)C1 | 200 nM
71 | CCN(CC)[C@@H](C)CNC(=O)c1cc(Cl)nc(-c2cnn3ccc(-c4cccs4)nc23)c1 | 69.3 nM
72 | CCN(CC)[C@@H](C)CNC(=O)c1cc(-c2cn[nH]c2)nc(-c2cnn3ccc(-c4cccs4)nc23)c1 | 13.5 nM
73 | CCN(CC)[C@@H](C)CNC(=O)c1cc(-c2cnn3ccc(-c4ccncc4)nc23)nc(N2CC(OC)C2)c1 | 607 nM
74 | N[C@H]1CCN(C(=O)c2ccnc(-c3cnn4ccc(-c5cccs5)nc34)c2)C1 | 172 nM
75 | CCN(CC)[C@@H](C)CNC(=O)c1cc(-c2cnn3ccc(-c4cccs4)nc23)nc(N2CC[C@H]2C(=O)NCC2CC2)c1 | 33.4 nM
76 | CCNC(C)(C)CNC(=O)c1ccnc(-c2cnn3ccc(-c4ccccc4)nc23)c1 | 67.4 nM
77 | O=C(c1ccnc(-c2cnn3ccc(-c4ccccc4)nc23)c1)N1CCC2CCNCC21 (stereo not given) | 65.6 nM
78 | CN(C)CCNC(=O)c1ccnc(-c2cnn3ccc(-c4cccs4)nc23)c1 | 116 nM
79 | CCN(CC)[C@@H](C)CNC(=O)c1cc(-c2cnn3ccc(-c4cccs4)nc23)nc(N2CC(NS(=O)(=O)C3CC3)C2)c1 | 28.1 nM
80 | NC[C@H]1CCCCN1C(=O)c1cc(-c2cnn3ccc(-c4ccccc4)nc23)ncc1N | 23.3 nM
